We go through three compounds from patent US20250120989A1, “BRIDGED TRICYCLIC CARBAMOYLPYRIDONE COMPOUNDS AND USES THEREOF” (priority 2023, published 2025).

Molecules are shown by their SMILES. Converted amounts (≈) assume the structure as drawn.

Series [1] can be described thus: Dog PO pharmacokinetic studies with P-gp inhibitor encequidar mesylate (Example E). Format: in vivo, beagle dog. As to conditions: for AUCinf, CMAX and oral bioavailability when administered with encequidar mesylate versus without / AUC(0-inf) / Cmax / bioavailability: dosed compound measured; for AUCinf, CMAX and oral bioavailability when administered with encequidar mesylate versus without: Table 5 versus Table 4, FIG. 1 and 2; for AUC(0-inf) / Cmax / bioavailability: male, beagle, plasma, dog PO 4 mg/kg, encequidar mesylate 5 mg-eq/kg PO about 30 min before. How it is done:
Three male beagle dogs were fasted overnight. […] Individual doses were calculated based on body weights recorded on the day of dose administration. […] This was followed by an additional 20 mL of water administered via oral gavage. The total flush volume was approximately 30 mL. Individual doses were administered on a […]. In all cases, food was returned at approximately 4 hours after dosing. […] Bioanalysis was carried out according to Example C.

A further series is described as follows: physchem. Conditions: FaSSIF, 23 °C, thermodynamic from solid.
A further series concerns HIV-1 (IIIB). The experiment in a line: microbe, parasite or virus in culture. As to conditions: Human immunodeficiency virus 1, MT4, 120 h; HIV-1 (IIIB) replication in MT-4 cells, 5 days, Cell Titer Glo; read-out: MT4 EC50. Format: cell-based.
Another series can be described thus: in vitro. Conditions: human, uninfected MT-4 cells.

The AUC(0-inf) is the area under the concentration-time curve extrapolated to infinity. Lower therefore signals less exposure. In general, Cmax refers to the peak of the concentration-time curve. One may read the bioavailability as the share of a dose that reaches the circulation, judged against a reference dose that is usually intravenous. Read a high bioavailability as good availability. Regarding `COC1=NO[C@@]2(CC[C@H](C)N3C[C@H]2n2cc(C(=O)NCc4ccc(F)cc4F)c(=O)c(O)c2C3=O)C1` [Intermediate C, (3′S,5S,7′R)—N-(2,4-difluorobenzyl)-12′-hydroxy-3-methoxy-3′-methyl-1′,11′-dioxo-1′,4′,5′,11′-tetrahydro-3′H,4H,7′H-spiro[isoxazole-5,6′-[2,7]methanopyrido[1,2-a][1,4]diazonine]-10′-carboxamide], in series [1] (dog PO), the “AUCinf, CMAX and oral bioavailability when administered with encequidar mesylate versus without” value is “increased”. In series [1], the AUC(0-inf) came out at 2300 ± 171 µM·h, the Cmax was found to be 62 ± 3.5 µM and the bioavailability stood at 82.3 ± 13.4%.

As usually defined, the thermodynamic solubility is the concentration in solution at equilibrium with solid. As for `CC1=NO[C@@]2(CC[C@H](C)N3C[C@H]2n2cc(C(=O)NCc4ccc(F)cc4F)c(=O)c(O)c2C3=O)C1` [Intermediate B, (3′S,5S,7′R)—N-(2,4-difluorobenzyl)-12′-hydroxy-3,3′-dimethyl-1′,11′-dioxo-1′,4′,5′,11′-tetrahydro-3′H,4H,7′H-spiro[isoxazole-5,6′-[2,7]methanopyrido[1,2-a][1,4]diazonine]-10′-carboxamide], the “AUCinf, CMAX and oral bioavailability when administered with encequidar mesylate versus without” value in series [1] (dog PO) was “increased”. In series [1], this compound gave an AUC(0-inf) of 3980 ± 762 µM·h, a Cmax of 80.8 ± 4.9 µM and a bioavailability of 70.3 ± 1.8%. The thermodynamic solubility at 24 h in “physchem” stood at 2 µg/mL (≈ 0.00411 mM).

As usually defined, the EC50 is the concentration that produces a half-maximal response. In general, CC50 refers to the concentration that lowers cell viability or growth by half. High values mean lower toxicity to the cells, low ones greater toxicity to the cells. For `COC1=NO[C@@]2(CC[C@H](C)N3C[C@H]2n2cc(C(=O)NCc4ccc(F)cc4F)c(=O)c(OCOC(=O)OCCOP(=O)(O)O)c2C3=O)C1` [Compound 3, (((3′S,5S,7′R)-10′-((2,4-difluorobenzyl)carbamoyl)-3-methoxy-3′-methyl-1′,11′-dioxo-1′,4′,5′,11′-tetrahydro-3′H,4H,7′H-spiro[isoxazole-5,6′-[2,7]methanopyrido[1,2-a][1,4]diazonin]-12′-yl)oxy)methyl (2-(phosphonooxy)ethyl) carbonate], the EC50 with HIV-1 (IIIB) was 0.46 nM. The “AUCinf, CMAX and oral bioavailability of Intermediate C when prodrug is administered with encequidar mesylate versus without” value in series [1] (dog PO, Intermediate C measured, Table 5 Entry 3 versus Table 4 Entry 3, FIG. 3) is listed as “increased”. In the series “in vitro”, this compound displayed a CC50 at 5 days of 13 µM. The same compound gave a solubility (thermodynamic) at 24 h in the series “physchem” of 6650 µg/mL (≈ 9.49 mM).
